{"source": "patent US6465007B1", "about": "“Transgene expression in polarized cells” (Genzyme Corporation, priority 1998, dated 2002)", "key": {"polarized NHBE cells [1]": {"tested_on": "polarized NHBE cells", "assay": "In vitro transfection with GL-67:pCF1-SEAP, secreted alkaline phosphatase in apical supernatant", "assay_type": "cell-based, human", "description": "Prior to transfection, polarized NHBE cells on inserts were incubated in either Opti-MEM, Opti-MEM containing 0.1% EGTA, or in Ca^2+-free media (Gibco) in both sides of the insert for 30 min at 37° C. The cells were then washed 3 times with Opti-MEM, and incubated with unlabeled GL-67:pCF1-SEAP (40:53 μM) for 4 h at 37° C., after which they were washed 3 times with Opti-MEM. One ml of culture medium then was added to the outside of the insert (basal side) and 100 μl added to the inside of the insert (apical side). The supernatant from the apical side was collected on day 2 after transfection, heated at 65° C. for 1 h to denature endogenous alkaline phosphatases (Berger et al., Gene, 1988), and assayed in triplicate for secreted alkaline phosphatase (SEAP) activity using an alkaline phosphatase reagent (Sigma) and human placental alkaline phosphatase (Calbiochem, La Jolla, Calif.) as a standard.\nTo inhibit NHBE cell proliferation, aphidicolin (0.5 μg/ml; Sigma) was added to culture medium on the basal side of the polarized NHBE cells for 18 h at 37° C. The cells were then transfected as described above except that the concentrations of cationic lipid and pDNA were 80 and 107 μM, respectively. After transfection, aphidicolin was present in the culture medium until the cells were harvested. […] Retinoic acid enhanced the inhibitory effect of aphidicolin on cell proliferation (Chou, R. H. et al., Cell & Tissue Kinetics, 18:387-97, 1985)."}, "polarized NHBE cells [2]": {"tested_on": "polarized NHBE cells", "assay": "Infection with Ad2βgal-4 after pretreatment, βgal expression", "assay_type": "cell-based, human", "details": "cells treated with the calcium chelator", "experimental": "Polarized NHBE cells were treated with Ca^2+-free medium (GIBCO) for 0.5 h and then rinsed twice with Opti-MEM (GIBCO). […] The cells were then infected by adding 200 μl of Opti-MEM containing Ad2βgal-4 or Ad2EGFP (100 moi) to the apical surface of the cultures, while 1 ml of OptiMEM was added to the outside of the insert. After 1 h, the viral suspension was removed, the cells washed twice with Opti-MEM and then 1 ml of the culture medium was added to the outside of the insert. Two days after infection, cells were assayed for βgal expression."}}, "data": [{"smiles": "O=C(O)CN(CCOCCOCCN(CC(=O)O)CC(=O)O)CC(=O)O", "note": "[EGTA, Ethylene glycol bis(B-aminoethyl ether) N,N,N′,N′-tetraacetic acid]", "values": [{"measurement": "increase in SEAP expression", "setting": "polarized NHBE cells [1]; 0.5 h pre-treatment, GL-67:pCF1-SEAP 40:53 μM 4 h, assayed after 48 h, FIG. 1", "result": "~55", "unit": "fold"}, {"measurement": "ability to transfect with cationic lipid:pDNA complexes", "setting": "polarized NHBE cells [1]; treatment of polarized normal human bronchial epithelial cells", "result": "significant enhancement"}, {"measurement": "increase in expression from an AdV infection", "setting": "polarized NHBE cells [2]", "result": "~50", "unit": "fold"}]}]}
